The target in one assay is BRD2 (Homo sapiens (Human), UniProt P25440). As to the kind of experiment: TR-FRET in-vitro binding assay for BRD2. The conditions noted are these: 45 nM His-Brd2(60-472), acetyl-histone H4 (AcK 5, 8, 12, 16) peptide. In outline:
(§1)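 Incubation at 30° C lasted 35 min, followed by TR-FRET measurement; each compound was tested as 8 single-point concentrations.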

Another assay concerns THP-1. The assay is described as follows: Cell growth inhibition assay (CellTiter-Glo), THP-1. Type of assay: cell-based, human. The following applies: THP-1 cells, 4 days; for GI50: Homo sapiens, 96 h, half-maximal growth inhibition; for THP-1 TGI: total growth inhibition. In a few lines: (§2)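 4-day CTG ATP readout, 37 °C/5% CO2; top conc 10 μM, 3-fold dilutions; 0.1% DMSO vehicle. Luminescence background-subtracted, normalised to day 0 plate; vehicle = 100%, medium = −100%. IC50/TGI by 4-parameter fit.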

In a further assay the target is CREBBP (Homo sapiens (Human), UniProt Q92793). The assay is described as follows: AlphaScreen in-vitro binding assay for CREBBP. The following applies: 324 nM His-CREBBP (1081-1197), acetyl-histone H4 (AcK 5, 8, 12) peptide. In outline: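 IC50 values were derived by non-linear regression of percent inhibition across 8 compound concentrations. Protein was His-tagged CREBBP bromodomain (1081-1197), peptide acetyl-histone H4 (AcK 5, 8, 12), in HEPES pH 7.5 buffer. Read-out was AlphaScreen with Ni-chelate acceptor and streptavidin donor beads, 35 min at 30° C then 60 min at RT.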

The next assay addresses BRD4 (Homo sapiens (Human), UniProt O60885). As to the kind of experiment: TR-FRET in-vitro binding assay for BRD4. The following applies: 45 nM His-Brd4(44-477), acetyl-histone H4 (AcK 5, 8, 12, 16) peptide. In outline: as §1
A further assay deals with BRD3 (Homo sapiens (Human), UniProt Q15059). As to the kind of experiment: TR-FRET in-vitro binding assay for BRD3. The following applies: 45 nM His-Brd3(20-477), acetyl-histone H4 (AcK 5, 8, 12, 16) peptide. In outline: as §1
The test system of another assay is K-562. As to the kind of experiment: Cell growth inhibition assay (CellTiter-Glo), K-562. Type of assay: cell-based, human. The conditions noted are these: K-562 cells, 4 days; for GI50: Homo sapiens, K562, 96 h, half-maximal growth inhibition; for K-562 TGI: total growth inhibition. In a few lines:
as §2

For a further assay, the system named is MV-4-11. The assay is described as follows: Cell growth inhibition assay (CellTiter-Glo), MV-4-11. Type of assay: cell-based, human. The conditions noted are these: MV-4-11 cells, 4 days; for GI50: Homo sapiens, MV4-11, 96 h, half-maximal growth inhibition; for MV-4-11 TGI: total growth inhibition. In a few lines: as §2

Some results are limits rather than exact numbers.

Chain of BRD3 (Q15059 20-477): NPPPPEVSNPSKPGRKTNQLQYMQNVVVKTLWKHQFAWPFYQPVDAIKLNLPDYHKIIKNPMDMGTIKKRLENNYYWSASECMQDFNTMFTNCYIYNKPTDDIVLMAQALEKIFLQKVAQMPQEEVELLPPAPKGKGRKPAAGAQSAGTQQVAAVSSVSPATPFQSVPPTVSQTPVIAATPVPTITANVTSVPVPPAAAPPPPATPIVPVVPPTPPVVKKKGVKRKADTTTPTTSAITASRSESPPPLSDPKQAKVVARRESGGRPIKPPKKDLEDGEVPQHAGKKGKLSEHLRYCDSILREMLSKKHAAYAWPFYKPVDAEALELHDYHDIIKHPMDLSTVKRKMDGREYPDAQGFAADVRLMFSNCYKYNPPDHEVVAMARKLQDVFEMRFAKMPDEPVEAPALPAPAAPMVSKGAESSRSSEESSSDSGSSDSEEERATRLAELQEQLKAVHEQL
Chain of BRD2 (P25440 60-472): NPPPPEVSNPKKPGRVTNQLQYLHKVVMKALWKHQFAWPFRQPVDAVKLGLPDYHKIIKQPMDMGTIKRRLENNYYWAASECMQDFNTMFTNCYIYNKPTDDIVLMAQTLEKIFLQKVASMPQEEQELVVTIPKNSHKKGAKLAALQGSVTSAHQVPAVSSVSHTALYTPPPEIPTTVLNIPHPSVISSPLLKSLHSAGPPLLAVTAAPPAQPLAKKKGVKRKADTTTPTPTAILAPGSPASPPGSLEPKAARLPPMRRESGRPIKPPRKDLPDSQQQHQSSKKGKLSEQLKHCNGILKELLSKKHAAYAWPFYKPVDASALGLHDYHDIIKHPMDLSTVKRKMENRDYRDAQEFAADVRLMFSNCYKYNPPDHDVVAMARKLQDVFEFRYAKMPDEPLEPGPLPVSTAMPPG
Chain of CREBBP (Q92793 1081-1197): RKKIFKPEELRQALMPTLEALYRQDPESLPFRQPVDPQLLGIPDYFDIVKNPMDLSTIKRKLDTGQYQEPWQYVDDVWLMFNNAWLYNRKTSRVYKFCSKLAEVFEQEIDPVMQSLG

`Cc1cc(N2C(=O)c3cc[nH]c3C2c2ccc(Cl)cc2)cn2c(C)nnc12` (stereo not drawn) [Example 21, 6-(4-chlorophenyl)-5-(3,8-dimethyl-[1,2,4]triazolo[4,3-a]pyridin-6-yl)-5,6-dihydropyrrolo[3,4-b]pyrrol-4(1H)-one]: the IC50 was found to be 82 nM at BRD2, 5100 nM at CREBBP, 47 nM at BRD4 and 53 nM on BRD3. The GI50 came out at 63.3 nM in the assay with THP-1, 246 nM in the assay on K-562 and 45.2 nM in the assay with MV-4-11. Further, in the assay with THP-1, the “THP-1 TGI” value came out at 178 nM. In the assay on K-562, the “K-562 TGI” value was more than 10000 nM. Besides, the “MV-4-11 TGI” value in the assay with MV-4-11 turned out to be 81.05 nM.
For the molecule `Cc1cc(N2C(=O)c3c(C(N)=O)cn(C)c3C2c2ccc(Cl)cc2)cn2c(C)nnc12` (stereo not drawn) [Example 101, 6-(4-chlorophenyl)-5-(3,8-dimethyl-[1,2,4]triazolo[4,3-a]pyridin-6-yl)-1-methyl-4-oxo-1,4,5,6-tetrahydropyrrolo[3,4-b]pyrrole-3-carboxamide], the IC50 on BRD2 was 54 nM; at CREBBP, 30600 nM; at BRD4, 41 nM; on BRD3 it was 42 nM. The results for the GI50 in the assay with THP-1, with K-562 and in the assay with MV-4-11 were 150 nM, 1300 nM and 57.4 nM, respectively. Besides, the “THP-1 TGI” value with THP-1 turned out to be 450.5 nM. Further, the “K-562 TGI” value in the assay with K-562 was more than 10000 nM. Besides, the “MV-4-11 TGI” value in the assay on MV-4-11 came out at 160.5 nM.
`Cc1cc(N2C(=O)c3ccn(C)c3C2c2ccccc2)cn(C)c1=O` (stereo not drawn) [Example 79, 5-(1,5-dimethyl-6-oxo-1,6-dihydropyridin-3-yl)-1-methyl-6-phenyl-5,6-dihydropyrrolo[3,4-b]pyrrol-4(1H)-one]: the IC50 at BRD2 turned out to be 660 nM; on CREBBP, 26800 nM; at BRD4 it was 434 nM; on BRD3, 222 nM. In addition, the results for the GI50 in the assay with THP-1, in the assay on K-562 and with MV-4-11 were 396 nM, 1790 nM and 295 nM, respectively. In addition, in the assay with THP-1, the “THP-1 TGI” value came out at 904 nM. Further, the “K-562 TGI” value in the assay with K-562 is more than 10000 nM. Further, in the assay with MV-4-11, the “MV-4-11 TGI” value is 496 nM.
`COCn1cc(C)c2c1C(c1ccc(Cl)cc1)N(c1cc(C)c3nnn(C)c3n1)C2=O` (stereo not drawn) [Example 2, 6-(4-chlorophenyl)-5-(3,7-dimethyl-3H-[1,2,3]triazolo[4,5-b]pyridin-5-yl)-1-(methoxymethyl)-3-methyl-5,6-dihydropyrrolo[3,4-b]pyrrol-4(1H)-one]: the IC50 at BRD2 is 23 nM; at CREBBP, more than 37000 nM; at BRD4 it was 12 nM; at BRD3, 16 nM. Besides, the figures for the GI50 in the assay on THP-1, in the assay on K-562 and in the assay with MV-4-11 were 15.1 nM, 62.1 nM and 7.66 nM, respectively. Also, the “THP-1 TGI” value in the assay on THP-1 was determined as 34.7 nM. In the assay on K-562, the “K-562 TGI” value is more than 10000 nM. For the same molecule, the “MV-4-11 TGI” value with MV-4-11 came to 19.7 nM.
Turning to `COc1ncccc1-c1cc2c(n1C)C(c1ccc(Cl)cc1)N(c1cc(C)c3nnc(C)n3c1)C2=O` (stereo not drawn) [Example 30, 6-(4-chlorophenyl)-5-(3,8-dimethyl-[1,2,4]triazolo[4,3-a]pyridin-6-yl)-2-(2-methoxypyridin-3-yl)-1-methyl-5,6-dihydropyrrolo[3,4-b]pyrrol-4(1H)-one], the IC50 on BRD2 worked out at 50 nM; at CREBBP, 1300 nM; at BRD4 it was 40 nM; on BRD3, 47 nM. The values for the GI50 in the assay with THP-1, with K-562 and in the assay on MV-4-11 were 19.8 nM, 57.2 nM and 11.2 nM, respectively. Besides, in the assay on THP-1, the “THP-1 TGI” value was 39.05 nM. Further, the “K-562 TGI” value with K-562 was more than 10000 nM. In the assay with MV-4-11, the “MV-4-11 TGI” value was found to be 21.3 nM.
`Cc1cc(N2C(=O)c3ccn(C)c3C2c2ccc(F)cc2)cn(C)c1=O` (stereo not drawn) [Example 82, 5-(1,5-dimethyl-6-oxo-1,6-dihydropyridin-3-yl)-6-(4-fluorophenyl)-1-methyl-5,6-dihydropyrrolo[3,4-b]pyrrol-4(1H)-one]: the IC50 on BRD2 came to 230 nM; at CREBBP, 4700 nM; on BRD4 it was 195 nM; at BRD3, 140 nM. The GI50 was found to be 206 nM in the assay with THP-1, 618 nM in the assay on K-562 and 104 nM with MV-4-11. Besides, the “THP-1 TGI” value with THP-1 was 397 nM. The “K-562 TGI” value in the assay on K-562 was more than 10000 nM. The “MV-4-11 TGI” value with MV-4-11 was 189 nM.
In the case of `Cn1ccc2c1C(c1ccc(F)cc1)N(c1cc(Cl)c(=O)n(C)c1)C2=O` (stereo not drawn) [Example 88, 5-(5-chloro-1-methyl-6-oxo-1,6-dihydropyridin-3-yl)-6-(4-fluorophenyl)-1-methyl-5,6-dihydropyrrolo[3,4-b]pyrrol-4(1H)-one], the IC50 at BRD2 worked out at 287 nM; on CREBBP, 7600 nM; at BRD4, 330 nM; at BRD3, 190 nM. In addition, the GI50 is 321 nM in the assay with THP-1, 715 nM in the assay on K-562 and 210 nM with MV-4-11. Besides, the “THP-1 TGI” value in the assay on THP-1 was 683 nM. In addition, the “K-562 TGI” value in the assay with K-562 is more than 10000 nM. In the assay on MV-4-11, the “MV-4-11 TGI” value was 359 nM.
On to `CC(=O)Nc1cn(C)c2c1C(=O)N(c1cc(C)c3nnn(C)c3n1)C2c1ccc(Cl)cc1` (stereo not drawn) [Example 96, N-(6-(4-chlorophenyl)-5-(3,7-dimethyl-3H-[1,2,3]triazolo[4,5-b]pyridin-5-yl)-1-methyl-4-oxo-1,4,5,6-tetrahydropyrrolo[3,4-b]pyrrol-3-yl)acetamide], for which the IC50 was 36 nM on BRD2, more than 37000 nM at CREBBP, 16 nM at BRD4 and 17 nM on BRD3. Further, the GI50 in the assay with THP-1 stood at 11.2 nM; in the assay on K-562, 32.8 nM; in the assay on MV-4-11 it was 10.9 nM. In addition, the “THP-1 TGI” value in the assay with THP-1 was 21.25 nM. Moreover, the “K-562 TGI” value with K-562 was more than 10000 nM. Further, in the assay with MV-4-11, the “MV-4-11 TGI” value was 21.2 nM.
On to `Cc1cc(N2C(=O)c3cc(C)n(C)c3C2c2ccc(Cl)cc2)cn(C)c1=O` (stereo not drawn) [Example 69, 6-(4-chlorophenyl)-5-(1,5-dimethyl-6-oxo-1,6-dihydropyridin-3-yl)-1,2-dimethyl-5,6-dihydropyrrolo[3,4-b]pyrrol-4(1H)-one], for which the IC50 at BRD2 came out at 159 nM; at CREBBP it was 1200 nM; on BRD4, 121 nM; on BRD3, 87 nM. The results for the GI50 in the assay on THP-1, in the assay with K-562 and in the assay with MV-4-11 were 65 nM, 236 nM and 37.8 nM, respectively. The “THP-1 TGI” value in the assay on THP-1 stood at 144 nM. Moreover, in the assay with K-562, the “K-562 TGI” value is more than 10000 nM. Also, the “MV-4-11 TGI” value with MV-4-11 was determined as 84.3 nM.
`Cc1cc(N2C(=O)c3c(NC(=O)OC(C)(C)C)cn(C)c3C2c2ccc(Cl)cc2)cn2c(C)nnc12` (stereo not drawn) [Example 102, Tert-butyl (6-(4-chlorophenyl)-5-(3,8-dimethyl-[1,2,4]triazolo[4,3-a]pyridin-6-yl)-1-methyl-4-oxo-1,4,5,6-tetrahydropyrrolo[3,4-b]pyrrol-3-yl)carbamate]: the IC50 came out at 44 nM at BRD2, 3200 nM on CREBBP, 32 nM at BRD4 and 34 nM on BRD3. Further, the GI50 with THP-1 is 53.3 nM; with K-562, 185 nM; in the assay with MV-4-11 it was 37.3 nM. The “THP-1 TGI” value with THP-1 worked out at 118 nM. Further, the “K-562 TGI” value in the assay on K-562 was more than 10000 nM. Moreover, the “MV-4-11 TGI” value in the assay on MV-4-11 is 90.4 nM.
In the case of `Cc1ccc(C2c3c(ccn3C)C(=O)N2c2cc(C)c(=O)n(C)c2)cc1` (stereo not drawn) [Example 81, 5-(1,5-dimethyl-6-oxo-1,6-dihydropyridin-3-yl)-1-methyl-6-(p-tolyl)-5,6-dihydropyrrolo[3,4-b]pyrrol-4(1H)-one], the IC50 at BRD2 came to 126 nM; at CREBBP it was 4500 nM; at BRD4 it was 131 nM; on BRD3, 81.2 nM. The GI50 in the assay with THP-1 came to 149 nM; in the assay on K-562 it was 721 nM; in the assay on MV-4-11, 79.8 nM. Further, the “THP-1 TGI” value in the assay on THP-1 amounted to 300 nM. Besides, in the assay on K-562, the “K-562 TGI” value is more than 10000 nM. Further, the “MV-4-11 TGI” value in the assay with MV-4-11 worked out at 121 nM.
For `Cc1cc(N2C(=O)c3c(NC(=O)OC(C)(C)C)cn(C)c3C2c2ccc(Cl)cc2)nc2c1nnn2C` (stereo not drawn) [Example 95, Tert-butyl (6-(4-chlorophenyl)-5-(3,7-dimethyl-3H-[1,2,3]triazolo[4,5-b]pyridin-5-yl)-1-methyl-4-oxo-1,4,5,6-tetrahydropyrrolo[3,4-b]pyrrol-3-yl)carbamate], the IC50 on BRD2 is 34 nM; on CREBBP it was more than 37000 nM; on BRD4 it was 16 nM; on BRD3, 26 nM. For the same molecule, the GI50 stood at 34.9 nM in the assay with THP-1, 123 nM with K-562 and 31.4 nM in the assay with MV-4-11. Also, in the assay on THP-1, the “THP-1 TGI” value is 81.5 nM. Besides, the “K-562 TGI” value in the assay with K-562 is more than 10000 nM. In the assay on MV-4-11, the “MV-4-11 TGI” value was 63.1 nM.

The values are drawn from patent US9550796B2, “Pyrrolopyrrolone derivatives and their use as BET inhibitors” (NOVARTIS AG, priority 2013, dated 2017).
